Source: US9528143B2, “Tracer reagents that enhance reaction-product analysis” (Sigma-Aldrich Co. LLC, priority 1999, dated 2016)

What was measured:
[1] = system: restriction enzymes; experiment: Restriction digest of NdeI-cut pUC19 with and without dye, agarose gel; assay type: biochemical; conditions: crude dye, all enzymes tested with the exception of KpnI, FIG. 17
Method: The effectiveness of restriction enzymes in cutting target DNA when a dye is present in the reaction mixture was evaluated. A variety of restriction enzymes were assayed for the detrimental effect of adding Amaranth (No. 31, Table 2) to a restriction digest as assayed by agarose gel electrophoresis. NdeI-cut pUC19 plasmid was prepared. This linearized plasmid was then digested with one of several restriction enzymes which normally cut pUC19 at a polylinker site. Thus, each enzyme would be expected to yield a product of similar sizes (ranging from 212 to 263 bp). The restriction enzyme digests were performed in the presence, or absence, of Amaranth dye, and at various concentrations of the enzyme. Column 1 (the leftmost column) contains 100 bp molecular weight ladders. Columns 2-4 contains cleavage products from sequential 5-fold dilutions of the restriction enzymes in the presence of dye. Columns 5-7 are as columns 2-4 but without dye. Columns 2 and 5 contained the restriction enzyme at 1/10th the suppliers concentration (i.e. the enzyme was considered a 10× concentration). The buffers used for the digests were as recommended by the supplier. The enzymes used are listed along the right side of the gel. The relative susceptibility of the enzyme to the dyes' presence is reported next to the enzyme. The sizes of the small bands in the electrophoresis runs range from 212 to 263 bp. […]

[2] = molecular target: T1, Taq DNA polymerase (Thermus aquaticus, UniProt P19821); experiment: PCR yield (TCA precipitation) versus dye concentration, purity and counterion; assay type: biochemical; conditions: for PCR toxicity by counterion: FIGS. 12A and 12B
T1 construct: purchased Sigma Chemical Co., St. Louis, Mo
Method: The dyes that survived these preceding tests were included in a PCR toxicity study. The dyes were added to PCR reactions at concentrations considered adequate for product performance. Enough of a 2× PCR master mix consisting of Taq DNA polymerase, 0.1 u/μl (Sigma Chemical Co., St. Louis, Mo.), PCR buffer (2×) (Sigma), dNTP's (200 μM each) (Sigma), α^32PdCTP (Amersham USA, Piscataway, N.J.), target DNA (lambda, 2 ng/μl) (Sigma) and primers (Perkin-Elmer 500 bp control, 2 μM) (Perkin-Elmer, Norwalk, Conn.) was prepared to accommodate all 11 remaining dyes plus three no dye controls. Ten μl of the 2× master mix was dispensed into reaction tubes followed by addition of 10 μl of aqueous darkly colored dye solutions or water (controls). The PCR cycling protocol was 20 cycles of 94/55/72° C. at one minute each. 20 μl of quench solution ([…] calf thymus DNA, 20 mM EDTA) was added followed by precipitation with 40 μl 40% trichloroacetic acid (TCA)/4% sodium pyrophosphate (NaPPi). The reactions were filtered on glass fiber filters, washed with 5% TCA/2% NaPPi and counted by scintillation methods. This quench/precipitation procedure will henceforth be referred to as “TCA precipitation”. […] The dyes that inhibited PCR were dropped from consideration (FIG. 6, PCR Tox, Table 2, those marked under “PCR”). […] Per cycle yield was calculated assuming the overall yield was the per cycle yield raised to the 20th power (FIG. 7). In FIG. 7, T1, T2, and T3 represent Taq controls (no dye) as in block and precipitation, numerals are dye number. Per cycle yield is calculated assuming […] where y is the 20 cycle yield (measured) and y1 is the per cycle yield. Table 3 summarizes the results as graphically depicted in FIG. 7 for each of dyes 23, 24, 25, 26, 31, and 39.
On the basis of performance to this point, the remaining dyes were considered substantially equivalent as tracer candidates. Acid violet 5 (number 39, Table 2) was chosen as a possible finalist candidate. Using this dye in a reaction mix at an absorbance of 10 (at its absorbance maximum of 527 nm) a PCR reaction was performed. […] This was considered unacceptable, but was overcome by further development efforts.
In general, the available dyes, as well as those investigated, are derived from unrelated applications. That is, many are used as fabric dyes, food colorings, biological stains etc. As such, they are available in various states of purity. In the case of the finalists, they all had purities of 80% or less, as determined by the product labels. In further experiments, PCR yields (determined by TCA precipitation) in reactions containing various concentrations of acid violet 5 (determined by A527) were compared before and after purification of the crude dye by reverse phase desalting. […] Since reversed phase desalting is not an attractive method for large scale dye purification, acid precipitation followed by ammonium hydroxide dissolution/evaporation to produce the ammonium dye was investigated. This procedure should result in an essentially salt free product. These procedures (reversed phase desalting and acid/ammonium hydroxide) were carried out for acid red 1 (No. 26, Table 2) and acid violet 5 (No. 39). […] The dyes were converted to their magnesium salts to further characterize the effect of counterion identity. This was accomplished by addition of magnesium chloride (excess) to a solution of the crude dye. The magnesium dye that immediately precipitated was recrystallized from water. […] In analogy with the magnesium salts, the calcium and zinc salts of acid red 1 were prepared to investigate whether the effect was divalent vs. monovalent cation or cation identity specific.

[3] = molecular target: Taq polymerase (Thermus aquaticus, UniProt P19821); conditions: Hoppe et al., BioTechniques 12:679-680 (1992); cited from earlier work
Chain of Taq polymerase (P19821 whole entry): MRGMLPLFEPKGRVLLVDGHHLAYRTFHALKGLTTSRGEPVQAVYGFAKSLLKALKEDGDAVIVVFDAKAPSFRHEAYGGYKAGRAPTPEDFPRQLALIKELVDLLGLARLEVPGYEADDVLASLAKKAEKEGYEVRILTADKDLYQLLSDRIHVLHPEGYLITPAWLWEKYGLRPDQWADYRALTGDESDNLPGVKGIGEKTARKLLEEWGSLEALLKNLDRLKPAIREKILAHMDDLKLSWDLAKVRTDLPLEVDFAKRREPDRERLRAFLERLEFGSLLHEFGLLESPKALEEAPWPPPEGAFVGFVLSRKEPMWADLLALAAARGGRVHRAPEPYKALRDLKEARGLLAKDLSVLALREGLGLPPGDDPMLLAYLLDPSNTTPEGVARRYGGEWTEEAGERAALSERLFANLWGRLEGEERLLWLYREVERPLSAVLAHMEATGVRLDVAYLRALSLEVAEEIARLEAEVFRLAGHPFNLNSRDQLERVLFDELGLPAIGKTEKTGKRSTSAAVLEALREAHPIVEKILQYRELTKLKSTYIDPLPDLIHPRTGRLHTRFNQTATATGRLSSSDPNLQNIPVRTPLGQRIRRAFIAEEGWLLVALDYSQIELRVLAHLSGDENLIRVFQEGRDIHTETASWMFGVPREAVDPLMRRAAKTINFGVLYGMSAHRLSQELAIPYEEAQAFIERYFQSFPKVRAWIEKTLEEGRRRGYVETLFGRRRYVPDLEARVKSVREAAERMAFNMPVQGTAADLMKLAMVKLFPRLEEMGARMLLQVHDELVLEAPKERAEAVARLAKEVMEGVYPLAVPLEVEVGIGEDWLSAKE

T1 sequence (P19821 whole entry): as above

Row | Compound | PCR toxicity by counterion [2] | compatibility with Taq [3] | also measured
1 | O=S(=O)([O-])c1ccc2c(N=Nc3ccc(S(=O)(=O)[O-])c4ccccc34)c(O)c(S(=O)(=O)[O-])cc2c1.[Na+].[Na+].[Na+] [Dye 31, Amaranth] |  |  | effect of dye on restriction enzyme digests [1]: relatively inert
2 | CC(=O)Nc1ccc(N=Nc2c(S(=O)(=O)[O-])cc3cc(S(=O)(=O)[O-])cc(NS(=O)(=O)c4ccc(C)cc4)c3c2O)cc1.[Na+].[Na+] [Dye 39, Acid Violet 5] |  |  | loss in PCR product yield ([2]; dye in reaction mix at absorbance of 10 at 527 nm, relative to same reaction without dye, FIG. 10): ≥ 50%
3 | CC(=O)Nc1cc(S(=O)(=O)[O-])cc2cc(S(=O)(=O)[O-])c(N=Nc3ccccc3)c(O)c12.[Na+].[Na+] [acid red 1 Mg salt, acid red 1] | much less toxic to PCR than either the sodium or ammonium salts |  | PCR toxicity of magnesium vs calcium and zinc salts ([2]; FIG. 12C): least toxic
4 | CC(=O)Nc1cc(S(=O)(=O)[O-])cc2cc(S(=O)(=O)[O-])c(N=Nc3ccccc3)c(O)c12.[Na+].[Na+] [acid red 1 ammonium, acid red 1] | more PCR toxic than the sodium |  | 
5 | Cc1cc(C2(c3ccc(O)c(C)c3)OS(=O)(=O)c3ccccc32)ccc1O [cresol red] |  | compatible with Taq | 
6 | OC[C@H]1O[C@@](CO)(O[C@H]2O[C@H](CO)[C@@H](O)[C@H](O)[C@H]2O)[C@@H](O)[C@@H]1O [sucrose] |  | compatible with Taq | 
7 | O=C([O-])C1=NN(c2ccc(S(=O)(=O)[O-])cc2)C(=O)C1N=Nc1ccc(S(=O)(=O)[O-])cc1.[Na+].[Na+].[Na+] (centres unmarked) [tartrazine] |  | compatible with Taq | 
8 | acid violet 5 [acid violet 5 Mg salt] | much less toxic to PCR than either the sodium or ammonium salts |  | 
9 | acid violet 5 [acid violet 5 ammonium] | more PCR toxic than the sodium |  | 
10 | acid violet 5 [acid violet 5 desalted] |  |  | susceptibility of PCR product yield to dye concentration ([2]; desalted relative to crude compound, FIG. 11): much less susceptible to dye concentration
